Converted amounts (≈) assume the structure as drawn. “Also recorded” adds a separate entry of the source. Like-named read-outs stand apart in the source and are kept apart here.
Tests used:
[1] = Kinetic solubility assay; format: physicochemical; details: 24 °C, kinetic from dmso stock, ambient temperature
[2] = PAMPA, Corning Gentest Pre-coated PAMPA plate; format: in vitro ADME; details: 1×PBS, pH 7.4, five hours, ambient temperature, read-out: Permeability (log Pe, in [cm/s]) (converted)
Description: For selected compounds, a Parallel artificial membrane permeability assay (PAMPA) analysis was conducted. The 10 mM DMSO stock solutions for selected compounds (Tan003-M03, ent-Tan003-M03, Tan003-O08, and Tan003-D20) were diluted 50 fold with 1×PBS, pH 7.4, for a dose concentration of 200 µM and a volume of 300 μL in the Donor compartment of the Corning Gentest Pre-coated PAMPA plate. After preparation of the Donor plate, any precipitation was noted. The Acceptor compartment was filled with 1×PBS (200 μL), pH 7.4. After careful assembly of the PAMPA plate, it was left to incubate for five hours in the dark at ambient temperature. The previously prepared solubility assay was used to measure the initial concentration of the sample in buffer (C0). After the incubation was complete, the PAMPA plate was disassembled, and the samples were transferred from the Donor and Acceptor plates to 96-well plates for analysis by chemiluminescent nitrogen detection (CLND. The C0 plate was filtered prior to analysis by CLND.

[3] = system: HepG2 human hepatoma cells; experiment: HepG2 cytotoxicity, MTS cell proliferation assay; format: cell-based; details: 48 h, n=1
In short: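 HepG2 cells seeded at 2,500/well, grown 24 h, then exposed to compound serial dilutions for 48 h. Viability read by MTS assay; EC50 from n=1.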

[4] = system: P. falciparum Dd2; experiment: Anti-plasmodial growth inhibition, SYBR green I-based DNA quantification; format: cell-based; details: Plasmodium falciparum, 72 h incubation, n=3
In short: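 Dd2 cultures at 1% parasitemia and 2% hematocrit in RPMI 1640 were exposed to compound over 0–20 μM (DMSO ≤0.25%) for 72 h at 37 °C. Growth was read by SYBR green I DNA quantification, with 1 μM chloroquine setting the baseline. EC50 was fitted from the dose-response curve, n=3.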

[5] = Human microsomal stability; format: in vitro ADME; details: t was 60 minutes
Description: Select compounds described herein were evaluated for structure-activity analyses for anti-plasmodial activity in vitro. For Dd2 EC50 (M), calculations were for n=3. For HepG2 EC50 (M), calculations were for n=1. For the human microsomal stability determination, t was 60 minutes.
To determine microsomal stability for selected compounds, a reaction plate was prepared by adding 691.25 μL, pre-warmed (37° C.) microsomal solution (0.63 mg/mL protein in 100 mM KPO4 with 1.3 mM EDTA) to an empty well of a 96 well plate and maintained at 37° C. The diluted 0.1 mM compound (8.75 μL) is added to the microsomal solution in the reaction plate and mixed thoroughly by repeated pipetting. The resulting solutions were pre-incubated for 5 minutes at 37° C. before preparing the T=0 plates. For the T=0 plates, an aliquot (160 μL) of each reaction solution was added to an empty well of a 96 well plate, as an exact replicate of the Reaction Plate. Cold (4° C.) MeOH (400 μL) is added to each well and mixed thoroughly by repeated pipetting. NADPH Regeneration solution (40 μL) is added to each well and mixed thoroughly by repeated pipetting. For the T=60 minute Incubation Plates (without NADPH), an aliquot (160 μL) of each reaction solution was added to an empty well of a 96 well plate, as an exact replicate of the Reaction Plate. LC-MS grade H2O (40 μL) is added to each well and mixed thoroughly by repeated pipetting. The plate was sealed and incubated at 37° C. for the incubation period. After incubation, cold (4° C.) MeOH (400 μL) is added to each well and mixed thoroughly by repeated pipetting. For the T=60 minute Incubation Plates, NADPH (95 μL) was added to the remaining solution (microsomes+test compound) in each well in the previously-prepared reaction plate to initiate the reaction. The plate was sealed and incubated at 37° C. for the incubation period. An aliquot (100 μL) was removed from each well at the desired time point and dispensed into a well of a 96-well plate. 200 μL of cold (4° C.) MeOH was […] the reaction.

[6] = system: synchronized parasite cultures (Dd2); experiment: Stage specific parasite inhibition (Giemsa smears, flow cytometry); format: cell-based, P. falciparum
Description: Select compounds described herein were evaluated for stage specific inhibition of parasite development. Tightly synchronized parasite cultures (Dd2) were treated with 3×IC50 concentrations of compound Tan003-M03 (“M03”), compound ent-Tan003-D20 (“D20-ent”), compound Tan003-O08 (“008”) or compound Tan002-O12 (“012”) at early ring, late ring, trophozoite, and schizont stages. Every 12 hours, Giemsa smears were made for treated cultures and samples were also collected and fixed for flow cytometry. […] Prior to flow analysis, fixed samples were permeabilized, RNase treated, and stained with YoYo-I as described in Bouillon et al., 2013. […] As the parasite matures, the DNA content increases and peaks start to spread to the right because of schizogony. Following reinvasion parasitemia increases in the next growth cycle, which is represented by an increase in peak height.

[7] = system: Asynchronous cultures; experiment: Parasitocidal or parasitostatic determination (rate of killing); format: cell-based; details: 3×IC50, asynchronous cultures treated for 12, 24, 48, or 72 hours, washed, monitored for continued growth
Description: Asynchronous cultures were grown and treated with compounds, vehicle control or Dihydroartemisinin at 3×IC50 to determine their respective rate of killing curves. Cultures were treated for 12, 24, 48, or 72 hours with compound, washed several times to remove any inhibitor, and monitored for continued growth for several days. […] Overall, the exemplary compounds including, but not limited to, Tan003-M03 and ent-Tan003-D20 are parasitocidal agents blocking parasite maturation at the segmenter stage preventing egress, a novel mechanism of action absent among current antimalarials.

[8] = 50 mM NaPO4 pH 6.5 buffer, pH 6.5, aqueous buffer, 50 mM NaPO4 pH6.5, 2.0% DMSO, read-out: Solubility LogS, at pH 6.5 (converted)
[9] = 1×PBS pH 7.4 buffer, pH 7.4, aqueous buffer, 1×PBS pH7.4, 2.0% DMSO, read-out: Solubility LogS, at pH 7.4 (converted)
[10] = SGF pH 1.2 buffer, pH 1.2, simulated gastric fluid, SGF pH1.2, 2.0% DMSO, read-out: Solubility LogS, at pH 1.2 (converted)

With CC(C)(C)[S@@+]([O-])N1Cc2cc(C(=O)NCc3ccc4c(c3)OCO4)nc(-c3cccc(-c4cccnc4)c3)c2[C@H]1CCO [Tan003-008] the solubility at 24 h [1, 8] was 10 µM (≈ 5.99 µg/mL), the solubility at 24 h [1, 9] was 12.6 µM (≈ 7.54 µg/mL) and the solubility at 24 h [1, 10] was 158 µM (≈ 94.9 µg/mL). It also gave a Papp at 5 h, 200 µM [2] of 1.82 ×10⁻⁶ cm/s, an EC50 [3] of 41000 nM and an EC50 [4] of 530 ± 110 nM. For the same molecule, the “Human microsomal stability (%)” value [5] was less than 1%.
CC(C)(C)[S@+]([O-])N1Cc2cc(C(=O)NCc3ccccc3F)nc(-c3cccc(-c4cccnc4)c3)c2[C@@H]1CCO [Tan003-D20] showed a solubility at 24 h [1, 8] of 6.31 µM (≈ 3.61 µg/mL), a solubility at 24 h [1, 9] of 7.94 µM (≈ 4.55 µg/mL) and a solubility at 24 h [1, 10] of 158 µM (≈ 90.8 µg/mL). The Papp at 5 h, 200 µM [2] was 2.4 ×10⁻⁶ cm/s, the EC50 [4] was 380 ± 20 nM and the “Human microsomal stability (%)” value [5] was less than 1%.
In the case of CC(C)NC(=O)N1Cc2cc(C(=O)NCC(F)(F)F)nc(-c3cccc(-c4cc5ccccc5o4)c3)c2[C@H]1CCO [Tan003-M03, (R)-4-(3-(benzofuran-2-yl)phenyl)-3-(2-hydroxyethyl)-N^2-isopropyl-N^6-(2,2,2-trifluoroethyl)-1,3-dihydro-2H-pyrrolo[3,4-c]pyridine-2,6-dicarboxamide], the “parasite stage development, Giemsa staining” value ([6]; 3×IC50, synchronized Dd2 cultures treated at ring, trophozoite or schizont stages, smears every 12 hours) is reported as “inhibit parasite development before egress”, the “parasite stage progression, flow cytometry” value ([6]; 3×IC50, synchronized Dd2 cultures, YoYo-I DNA staining) is reported as “block parasite stage progression prior to egress” and the solubility at 24 h [1, 8] is reported as 6.31 µM (≈ 3.57 µg/mL). It also gave a solubility at 24 h [1, 9] of 7.94 µM (≈ 4.5 µg/mL), a solubility at 24 h [1, 10] of 7.94 µM (≈ 4.5 µg/mL) and a Papp at 5 h, 200 µM [2] of 3.98 ×10⁻⁶ cm/s. The EC50 [3] was 45000 nM, the EC50 [4] was 240 ± 70 nM and the “parasitocidal activity (rate of killing)” value [7] was “parasitocidal and prohibit progression beyond segmenter stages; also recorded: parasitocidal and prevent any parasite development beyond the schizont stage when treated for at least 48 hours”. For the same molecule, the “Human microsomal stability (%)” value [5] was 61.5%.
For CC(C)NC(=O)N1Cc2cc(C(=O)NCC(F)(F)F)nc(-c3cccc(-c4cc5ccccc5o4)c3)c2[C@@H]1CCO [ent-Tan003-M03], the solubility at 24 h [1, 9] was 6.31 µM (≈ 3.57 µg/mL), the EC50 [4] was 200 ± 20 nM and the “Human microsomal stability (%)” value [5] was 62.7%.
